Results taken from ChEMBL document CHEMBL1201862, “PubChem BioAssay data set” (2004).
Activity calls are given as the source filed them.

Legend:
Nonstructural protein 1 = Nonstructural protein 1 (Influenza A virus, UniProt Q194T2); assay type: functional, Influenza A virus (A/California/07/2009(H1N1))
[1] = target: T1, Histone-lysine N-methyltransferase NSD2 (Homo sapiens, UniProt O96028); assay type: biochemical
T1 sequence (O96028 whole entry): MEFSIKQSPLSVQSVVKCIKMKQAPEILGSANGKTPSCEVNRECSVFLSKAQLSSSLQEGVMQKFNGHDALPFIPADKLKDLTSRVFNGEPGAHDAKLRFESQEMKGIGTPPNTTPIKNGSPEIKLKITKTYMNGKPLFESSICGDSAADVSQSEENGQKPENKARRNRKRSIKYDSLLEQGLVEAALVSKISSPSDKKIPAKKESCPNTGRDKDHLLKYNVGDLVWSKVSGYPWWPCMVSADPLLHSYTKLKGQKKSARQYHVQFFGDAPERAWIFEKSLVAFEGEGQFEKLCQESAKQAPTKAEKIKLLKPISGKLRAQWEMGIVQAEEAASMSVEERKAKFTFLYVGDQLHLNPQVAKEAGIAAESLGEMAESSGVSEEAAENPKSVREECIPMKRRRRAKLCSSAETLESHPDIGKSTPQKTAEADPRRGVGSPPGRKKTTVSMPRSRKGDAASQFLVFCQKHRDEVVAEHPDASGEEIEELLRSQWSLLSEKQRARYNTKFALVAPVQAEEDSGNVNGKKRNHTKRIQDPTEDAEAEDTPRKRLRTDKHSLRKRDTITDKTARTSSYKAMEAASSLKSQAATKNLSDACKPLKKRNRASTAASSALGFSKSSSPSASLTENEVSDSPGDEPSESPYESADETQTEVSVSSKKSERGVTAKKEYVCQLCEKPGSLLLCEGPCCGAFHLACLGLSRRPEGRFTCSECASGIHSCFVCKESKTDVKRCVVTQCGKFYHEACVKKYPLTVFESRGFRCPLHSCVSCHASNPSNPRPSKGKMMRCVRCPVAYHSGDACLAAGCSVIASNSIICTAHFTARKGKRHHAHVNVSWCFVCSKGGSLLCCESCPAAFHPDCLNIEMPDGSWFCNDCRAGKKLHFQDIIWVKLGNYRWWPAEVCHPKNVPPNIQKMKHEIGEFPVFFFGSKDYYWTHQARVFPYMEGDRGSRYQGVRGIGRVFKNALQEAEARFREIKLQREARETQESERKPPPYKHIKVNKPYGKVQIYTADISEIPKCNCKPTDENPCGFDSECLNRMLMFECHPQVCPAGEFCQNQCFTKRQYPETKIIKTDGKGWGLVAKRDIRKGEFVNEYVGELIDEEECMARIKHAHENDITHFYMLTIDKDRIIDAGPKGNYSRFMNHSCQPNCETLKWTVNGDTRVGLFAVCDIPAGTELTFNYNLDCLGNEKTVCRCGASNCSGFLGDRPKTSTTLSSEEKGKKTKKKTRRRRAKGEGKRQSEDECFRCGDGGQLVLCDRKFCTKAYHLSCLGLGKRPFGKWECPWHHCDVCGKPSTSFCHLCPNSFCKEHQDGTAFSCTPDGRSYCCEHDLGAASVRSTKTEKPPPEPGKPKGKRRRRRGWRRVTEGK

[2] = target: Dual specificity protein phosphatase 3 (Homo sapiens, UniProt P51452); test: VHR1 phosphatase inhibitors, biochemical (AID 1878)
[3] = target: T2, Sentrin-specific protease 8 (Homo sapiens, UniProt Q96LD8); assay type: functional;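 further: kinetic enzyme assay of SENP8 cleaving a Nedd8 protein substrate, dose-response confirmation of screening hits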
T2 sequence (Q96LD8 whole entry): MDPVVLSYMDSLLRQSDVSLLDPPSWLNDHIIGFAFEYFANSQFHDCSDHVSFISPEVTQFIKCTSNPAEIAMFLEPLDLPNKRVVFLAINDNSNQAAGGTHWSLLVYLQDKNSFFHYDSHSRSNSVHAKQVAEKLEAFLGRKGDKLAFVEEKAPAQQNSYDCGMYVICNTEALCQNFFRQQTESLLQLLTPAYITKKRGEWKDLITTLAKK

[4] = target: Cyclin-dependent kinase 5 (Homo sapiens, UniProt Q00535); assay type: functional;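 further: CDK5 measured as one member of a kinase profiling panel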
[5] = target: Dual specificity tyrosine-phosphorylation-regulated kinase 1B (Homo sapiens, UniProt Q9Y463); test: Navigating the Kinome. Panel member name: DYRK1B; assay type: functional
[6] = target: High affinity nerve growth factor receptor (Homo sapiens, UniProt P04629); assay type: functional;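 further: NTRK1 tested as one member of a kinome-wide profiling panel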
[7] = target: Death-associated protein kinase 3 (Homo sapiens, UniProt O43293); assay type: functional;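 further: measured as one member of a kinome-wide profiling panel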
[8] = target: Mitogen-activated protein kinase kinase kinase kinase 4 (Homo sapiens, UniProt O95819); assay type: functional
[9] = target: Receptor-type tyrosine-protein kinase FLT3 (Homo sapiens, UniProt P36888); assay type: functional;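 further: FLT3 was tested as one member of a kinome-wide kinase panel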
[10] = target: Platelet-derived growth factor receptor alpha (Homo sapiens, UniProt P16234); test: Navigating the Kinome. Panel member name: PDGFRA; assay type: functional
[11] = target: Dual specificity mitogen-activated protein kinase kinase 2 (Homo sapiens, UniProt P36507); test: Navigating the Kinome. Panel member name: MAP2K2; assay type: functional
[12] = target: Serine/threonine-protein kinase pim-1 (Homo sapiens, UniProt P11309); assay type: functional

Chain of High affinity nerve growth factor receptor (P04629 whole entry): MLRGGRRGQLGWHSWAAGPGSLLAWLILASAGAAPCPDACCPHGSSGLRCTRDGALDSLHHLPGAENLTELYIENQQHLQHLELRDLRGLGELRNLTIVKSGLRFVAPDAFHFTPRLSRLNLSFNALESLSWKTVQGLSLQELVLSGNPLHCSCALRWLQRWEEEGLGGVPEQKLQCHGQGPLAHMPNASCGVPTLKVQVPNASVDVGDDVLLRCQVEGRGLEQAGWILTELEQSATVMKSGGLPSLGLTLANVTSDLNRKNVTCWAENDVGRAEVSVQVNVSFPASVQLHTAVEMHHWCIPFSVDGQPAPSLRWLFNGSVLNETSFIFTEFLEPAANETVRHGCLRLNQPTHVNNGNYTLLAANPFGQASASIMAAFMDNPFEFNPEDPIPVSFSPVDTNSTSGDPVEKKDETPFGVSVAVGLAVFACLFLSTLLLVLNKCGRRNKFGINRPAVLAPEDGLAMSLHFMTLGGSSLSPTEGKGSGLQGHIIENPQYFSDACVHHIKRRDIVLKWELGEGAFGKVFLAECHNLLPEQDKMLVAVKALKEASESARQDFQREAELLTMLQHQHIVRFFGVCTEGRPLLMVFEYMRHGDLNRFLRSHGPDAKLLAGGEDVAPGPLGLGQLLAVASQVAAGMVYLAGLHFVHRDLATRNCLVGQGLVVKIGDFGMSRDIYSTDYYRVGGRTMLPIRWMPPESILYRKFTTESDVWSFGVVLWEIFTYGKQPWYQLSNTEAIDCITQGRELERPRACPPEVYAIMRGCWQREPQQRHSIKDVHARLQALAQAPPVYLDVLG
Chain of Mitogen-activated protein kinase kinase kinase kinase 4 (O95819 whole entry): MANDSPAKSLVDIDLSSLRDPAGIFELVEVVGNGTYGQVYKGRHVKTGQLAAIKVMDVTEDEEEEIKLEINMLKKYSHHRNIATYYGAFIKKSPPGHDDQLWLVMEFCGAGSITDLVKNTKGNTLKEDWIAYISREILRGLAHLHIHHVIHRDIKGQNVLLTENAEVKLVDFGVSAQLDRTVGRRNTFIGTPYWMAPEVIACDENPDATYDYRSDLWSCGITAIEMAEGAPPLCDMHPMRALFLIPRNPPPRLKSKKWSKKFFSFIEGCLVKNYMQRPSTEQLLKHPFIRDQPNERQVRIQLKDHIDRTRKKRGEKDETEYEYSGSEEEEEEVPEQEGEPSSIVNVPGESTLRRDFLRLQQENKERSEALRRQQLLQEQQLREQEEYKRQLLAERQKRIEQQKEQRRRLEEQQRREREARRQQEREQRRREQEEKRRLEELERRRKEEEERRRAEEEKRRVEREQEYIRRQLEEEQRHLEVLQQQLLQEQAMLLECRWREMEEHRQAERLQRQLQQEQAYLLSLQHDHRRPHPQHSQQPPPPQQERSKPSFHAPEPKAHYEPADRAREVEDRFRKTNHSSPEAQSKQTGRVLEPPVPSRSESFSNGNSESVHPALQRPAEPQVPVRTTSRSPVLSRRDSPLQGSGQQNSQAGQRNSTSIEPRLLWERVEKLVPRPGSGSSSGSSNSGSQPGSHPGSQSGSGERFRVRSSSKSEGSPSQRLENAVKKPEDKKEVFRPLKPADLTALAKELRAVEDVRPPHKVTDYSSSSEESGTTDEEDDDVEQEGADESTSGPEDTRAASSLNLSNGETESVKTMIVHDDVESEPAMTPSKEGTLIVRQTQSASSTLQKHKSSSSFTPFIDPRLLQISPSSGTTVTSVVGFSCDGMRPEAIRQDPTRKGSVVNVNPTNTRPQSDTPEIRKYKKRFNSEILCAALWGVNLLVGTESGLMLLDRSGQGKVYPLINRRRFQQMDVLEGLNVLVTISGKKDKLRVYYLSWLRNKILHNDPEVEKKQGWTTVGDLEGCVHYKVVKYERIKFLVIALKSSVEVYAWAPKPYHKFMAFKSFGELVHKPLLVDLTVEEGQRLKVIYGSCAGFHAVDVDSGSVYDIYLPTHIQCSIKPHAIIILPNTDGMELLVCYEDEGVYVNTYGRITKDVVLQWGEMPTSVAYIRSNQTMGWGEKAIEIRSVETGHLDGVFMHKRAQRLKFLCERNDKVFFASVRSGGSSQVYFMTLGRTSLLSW
Chain of Dual specificity mitogen-activated protein kinase kinase 2 (P36507 whole entry): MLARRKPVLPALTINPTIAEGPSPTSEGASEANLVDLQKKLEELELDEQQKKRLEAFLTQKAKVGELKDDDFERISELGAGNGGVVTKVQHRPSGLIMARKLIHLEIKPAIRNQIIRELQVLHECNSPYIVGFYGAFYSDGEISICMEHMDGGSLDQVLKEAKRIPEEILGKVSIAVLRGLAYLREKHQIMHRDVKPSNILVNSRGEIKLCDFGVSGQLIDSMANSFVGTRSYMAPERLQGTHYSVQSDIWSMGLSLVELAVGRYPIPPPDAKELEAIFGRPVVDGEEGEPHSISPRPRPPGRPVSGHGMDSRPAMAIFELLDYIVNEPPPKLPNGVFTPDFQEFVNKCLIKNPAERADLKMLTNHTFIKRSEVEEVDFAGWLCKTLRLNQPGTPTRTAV
Chain of Nonstructural protein 1 (Q194T2 whole entry): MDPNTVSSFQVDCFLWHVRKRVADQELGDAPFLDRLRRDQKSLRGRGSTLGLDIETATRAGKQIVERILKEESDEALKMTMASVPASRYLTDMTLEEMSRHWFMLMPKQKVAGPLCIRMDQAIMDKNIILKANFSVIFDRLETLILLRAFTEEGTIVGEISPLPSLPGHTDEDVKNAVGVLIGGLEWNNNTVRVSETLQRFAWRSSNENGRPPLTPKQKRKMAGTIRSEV
Chain of Death-associated protein kinase 3 (O43293 whole entry): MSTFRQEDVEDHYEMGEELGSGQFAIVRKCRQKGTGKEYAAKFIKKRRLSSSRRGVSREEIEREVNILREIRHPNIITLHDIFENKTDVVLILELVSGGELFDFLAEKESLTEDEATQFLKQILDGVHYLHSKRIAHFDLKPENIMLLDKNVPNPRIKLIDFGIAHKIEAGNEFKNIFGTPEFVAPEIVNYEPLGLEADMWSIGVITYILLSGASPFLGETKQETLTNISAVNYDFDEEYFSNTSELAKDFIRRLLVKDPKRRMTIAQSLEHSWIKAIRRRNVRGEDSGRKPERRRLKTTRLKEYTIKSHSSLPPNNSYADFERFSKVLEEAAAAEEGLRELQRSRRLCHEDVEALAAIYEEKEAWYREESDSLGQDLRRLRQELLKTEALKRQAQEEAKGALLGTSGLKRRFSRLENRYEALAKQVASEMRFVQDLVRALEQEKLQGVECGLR
Chain of Receptor-type tyrosine-protein kinase FLT3 (P36888 whole entry): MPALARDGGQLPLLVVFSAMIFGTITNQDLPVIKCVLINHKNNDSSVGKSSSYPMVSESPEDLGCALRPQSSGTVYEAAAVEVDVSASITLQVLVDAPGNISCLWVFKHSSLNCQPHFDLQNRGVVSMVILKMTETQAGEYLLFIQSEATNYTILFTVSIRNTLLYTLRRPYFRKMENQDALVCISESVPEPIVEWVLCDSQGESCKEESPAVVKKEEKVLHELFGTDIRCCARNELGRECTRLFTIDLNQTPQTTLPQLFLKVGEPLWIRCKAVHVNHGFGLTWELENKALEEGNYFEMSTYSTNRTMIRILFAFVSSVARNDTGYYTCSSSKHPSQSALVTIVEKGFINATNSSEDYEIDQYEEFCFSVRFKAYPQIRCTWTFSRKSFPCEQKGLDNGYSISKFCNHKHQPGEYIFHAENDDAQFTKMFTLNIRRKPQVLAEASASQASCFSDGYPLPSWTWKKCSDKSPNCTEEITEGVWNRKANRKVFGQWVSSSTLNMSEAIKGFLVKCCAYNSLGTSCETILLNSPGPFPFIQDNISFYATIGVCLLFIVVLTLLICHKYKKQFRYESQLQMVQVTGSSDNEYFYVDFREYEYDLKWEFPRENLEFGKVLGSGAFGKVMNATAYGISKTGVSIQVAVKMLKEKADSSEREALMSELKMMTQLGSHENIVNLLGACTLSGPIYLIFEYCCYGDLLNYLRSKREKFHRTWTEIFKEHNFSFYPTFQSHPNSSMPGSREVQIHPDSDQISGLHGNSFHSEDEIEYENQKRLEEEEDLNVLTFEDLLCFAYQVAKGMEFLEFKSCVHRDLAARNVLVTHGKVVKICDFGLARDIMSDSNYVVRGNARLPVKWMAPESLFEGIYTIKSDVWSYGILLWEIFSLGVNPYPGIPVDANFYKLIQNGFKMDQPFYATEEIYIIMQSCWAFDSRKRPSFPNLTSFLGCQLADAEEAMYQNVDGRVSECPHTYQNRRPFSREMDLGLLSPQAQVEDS
Chain of Cyclin-dependent kinase 5 (Q00535 whole entry): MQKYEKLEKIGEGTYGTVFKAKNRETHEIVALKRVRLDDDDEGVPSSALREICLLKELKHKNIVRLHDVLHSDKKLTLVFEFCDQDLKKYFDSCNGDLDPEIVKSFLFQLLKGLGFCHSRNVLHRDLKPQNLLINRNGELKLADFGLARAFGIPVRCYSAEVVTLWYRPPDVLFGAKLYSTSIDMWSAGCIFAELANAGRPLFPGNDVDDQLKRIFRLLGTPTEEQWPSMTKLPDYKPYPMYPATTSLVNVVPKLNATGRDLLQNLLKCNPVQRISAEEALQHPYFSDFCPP
Chain of Dual specificity tyrosine-phosphorylation-regulated kinase 1B (Q9Y463 whole entry): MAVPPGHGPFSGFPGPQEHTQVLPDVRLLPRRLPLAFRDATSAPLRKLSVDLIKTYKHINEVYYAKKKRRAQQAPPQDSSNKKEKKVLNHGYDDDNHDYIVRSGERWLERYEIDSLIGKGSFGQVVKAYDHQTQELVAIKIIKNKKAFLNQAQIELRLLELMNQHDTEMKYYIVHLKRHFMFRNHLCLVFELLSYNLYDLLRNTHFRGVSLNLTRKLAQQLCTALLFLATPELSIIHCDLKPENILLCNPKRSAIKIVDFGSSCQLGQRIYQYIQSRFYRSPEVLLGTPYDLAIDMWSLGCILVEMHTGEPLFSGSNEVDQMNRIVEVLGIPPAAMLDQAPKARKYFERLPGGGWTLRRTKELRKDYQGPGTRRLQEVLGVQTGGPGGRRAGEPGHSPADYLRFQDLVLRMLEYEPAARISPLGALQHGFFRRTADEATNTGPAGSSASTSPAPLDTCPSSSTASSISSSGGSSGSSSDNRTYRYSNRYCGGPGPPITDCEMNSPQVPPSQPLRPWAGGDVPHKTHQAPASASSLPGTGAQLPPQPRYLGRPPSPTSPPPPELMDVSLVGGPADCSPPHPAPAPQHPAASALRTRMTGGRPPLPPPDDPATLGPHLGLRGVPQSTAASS

SMILES	IC50 (Nonstructural protein 1)	AC50 [1]	IC50 [2]	IC50 [3]	Ki [4]	Ki [5]	Ki [6]	Ki [7]	Ki [8]	Ki [9]	Ki [10]	Ki [11]	Ki [12]
O=S(=O)(O)c1cccc2c(N=Nc3ccc(O)c4ncccc34)cccc12	4680 nM (active)	7570 nM (active)	1700 nM (active)										
O=C(NNc1cc(N2CCCC2)nc(N2CCCC2)n1)c1ccc([N+](=O)[O-])cc1		13700 nM (active)		732 nM (active)									
O=C(Cc1cccs1)Nc1nc2ccccc2s1					1580 nM (active)	794 nM (active)	316 nM (active)	5010 nM (active)	> 5010 nM (inactive)	> 3160 nM (inactive)	1580 nM (active)	794 nM (active)	794 nM (active)
